Reference: EP1200406B1, “CYCLIC AMIDES AND IMIDES HAVING SELECTIVE ANTAGONIST ACTIVITY AT ALPHA-1D ADRENERGIC RECEPTOR” (RECORDATI INDUSTRIA CHIMICA E FARMACEUTICA S.p.a., priority 1999, dated 2001)
Read-outs that look alike come from different tables or passages of the source.

Columns and labels:
[1] = biological target: T1, human recombinant α1d adrenoceptor (Homo sapiens, UniProt P25100); assay: Radioligand binding ([3H]prazosin) on membranes of CHO cells expressing cloned α1d adrenoceptor; details: read-out: Affinity (Ki) α1d
T1 construct: expressed in transfected cells; host or cells: CHO cells (membranes)
T1 sequence (P25100 1-572): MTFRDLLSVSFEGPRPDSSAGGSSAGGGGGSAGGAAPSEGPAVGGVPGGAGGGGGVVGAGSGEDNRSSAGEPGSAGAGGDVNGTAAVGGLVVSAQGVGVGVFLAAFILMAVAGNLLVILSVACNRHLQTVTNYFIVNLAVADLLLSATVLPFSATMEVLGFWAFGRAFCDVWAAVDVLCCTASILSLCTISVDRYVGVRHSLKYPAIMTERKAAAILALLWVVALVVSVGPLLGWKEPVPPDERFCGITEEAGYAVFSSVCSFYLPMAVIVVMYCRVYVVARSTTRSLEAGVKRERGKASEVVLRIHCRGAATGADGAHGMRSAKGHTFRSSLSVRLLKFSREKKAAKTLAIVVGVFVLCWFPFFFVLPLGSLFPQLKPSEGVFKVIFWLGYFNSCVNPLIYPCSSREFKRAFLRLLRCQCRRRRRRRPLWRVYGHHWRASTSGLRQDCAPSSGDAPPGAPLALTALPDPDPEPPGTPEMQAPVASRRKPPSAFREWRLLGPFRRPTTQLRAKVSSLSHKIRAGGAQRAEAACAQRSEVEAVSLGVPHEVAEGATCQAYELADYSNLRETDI
Experimental: The determination of affinity for cloned subtypes of human α1 adrenergic receptors was performed in membranes from CHO cells (chinese hamster ovary cells) transfected by electroporation with DNA expressing the genes encoding each α1-adrenoceptor subtype, namely α1a, α1b and α1d.. Cloning and stable expression of the human α1-adrenoceptor gene were performed as previously described (Testa et al., Pharmacol. Comm. 6, 79-86 (1995)). CHO cell membranes were incubated in […] Tris pH 7.4 with 0.2 nM [^3H]prazosin, in a final volume of 1.02 ml for 30 minutes at 25°C, in the absence or presence of competing drugs (1 pM-10 µM). Non-specific binding was determined in the presence of 10 µM phentolamine. Incubation was stopped by addition of ice-cold Tris buffer and rapid filtration through 0.2% polyethyleneimine pretreated Schleicher & Schuell GF52 filters. […] The HeLa cells were grown as monolayers in Dulbecco's modified Eagle's medium (DMEM), supplemented with 10% foetal calf serum and gentamicin (100 µg/ml), 5% CO2, at 37°C. The cells were detached from the growth flask at 95% confluence by a cell scraper and were lysed in ice-cold 5 mM Tris and 5-mM EDTA buffer (pH 7.4). The homogenates were centrifuged at 40000 x g x 20 minutes and the membranes were re-suspended in a small volume of ice-cold 5 mM Tris and 5-mM EDTA buffer (pH 7.4) and immediately frozen and stored at -70°C until use. On the experiment day, the cell membranes were re-suspended in a buffer containing 50 mM Tris (pH 7.4), 2.5 mM MgCl2, 10 µM pargyline (Fargin et al., Nature 335, 358-360 (1988)). […] The incubation was stopped by addition of ice-cold Tris buffer and rapid filtration through 0.2%-polyethyleneimine-pretreated Schleicher & Schuell filters. The inhibition of specific binding of the radioligands by the drugs was analysed to estimate the IC50 value by using the non-linear curve-fitting programme Allfit (De Lean et al., Am. J. Physiol. 235, E97-E102 (1978)). The IC50 value was converted to an affinity constant (Ki) by the equation of Cheng & Prusoff (Biochem. Pharmacol. 22, 3099-3108 (1973)). Data were expressed as mean of Ki.

Rat aorta α1D = biological target: T2, Rat aorta α1D (Rattus norvegicus, UniProt P23944); assay: Functional antagonism of noradrenaline-induced contraction, rat aorta strips; format: cell-based, Sprague Dawley rats; details: noradrenaline as agonist, 30 minutes incubation, Schild plot; read-out: Functional affinity pKB, Rat aorta α1D (converted)
T2 construct: from tissue; host or cells: rat thoracic aorta, helicoidal strips
T2 sequence (P23944 1-561): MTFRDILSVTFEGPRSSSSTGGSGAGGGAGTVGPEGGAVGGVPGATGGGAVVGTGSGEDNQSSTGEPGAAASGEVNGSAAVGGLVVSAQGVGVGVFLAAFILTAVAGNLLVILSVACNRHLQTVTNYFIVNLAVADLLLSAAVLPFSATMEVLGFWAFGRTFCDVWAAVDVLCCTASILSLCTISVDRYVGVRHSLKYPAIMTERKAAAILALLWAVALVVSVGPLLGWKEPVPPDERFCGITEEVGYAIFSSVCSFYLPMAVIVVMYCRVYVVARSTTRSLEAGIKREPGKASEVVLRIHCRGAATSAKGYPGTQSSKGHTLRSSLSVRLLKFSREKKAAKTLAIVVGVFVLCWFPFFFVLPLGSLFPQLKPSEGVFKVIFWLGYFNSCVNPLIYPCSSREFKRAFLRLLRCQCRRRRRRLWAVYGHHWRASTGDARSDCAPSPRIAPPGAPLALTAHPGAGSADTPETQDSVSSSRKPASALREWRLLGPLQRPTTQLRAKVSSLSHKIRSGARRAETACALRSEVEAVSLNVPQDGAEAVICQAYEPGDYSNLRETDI
Experimental: In vitro assessment of functional antagonism for α1-adrenoceptor subtypes
Thoracic aorta was obtained from Sprague Dawley rats, cut in helicoidal strips and placed in Krebs solution containing desmethylimipramine (0.1 µM), corticosterone (1 µM), propranol (1 µM) and yohimbine (0.1 µM). The strips were mounted for isotonic tension recording in an organ bath containing the above Krebs buffer enriched and aerated constantly with 95% O2 and 5% CO2, maintained at 37°C and loaded with 1.5 g. After an equilibration period, the strips were primed twice with 10 µM noradrenaline, then concentration/response-to-the-agonist curves were constructed before (basal) and after 30 minutes incubation with single antagonist concentrations (response). The Schild-plot parameters were evaluated by linear-regression analysis according to Tallarida and Murray (Manual of Pharmacologic Calculations with Computer Programs, 53-56, Springer-Verlag).

[2] = human cloned receptor, CHO cell membranes, 0.2 nM [3H]prazosin

Ki [1, 2] [nM]	Structure (SMILES)	other results
10.1	Cc1ccc(C)c(N2CCN(CCN3C(=O)CC4(CCCC4)CC3=O)CC2)c1 [Example 5, 8-{2-[4-(2,5-Dimethylphenyl)-1-piperazinyl]-ethyl}-8-azaspiro[4.5]decane-7,9-dione]	–
3.72	O=C1CC2(CCCC2)CC(=O)N1CCN1CCN(c2cc(Br)ccc2Br)CC1 [Example 7, 8-{2-[4-(2,5-Dibromophenyl)-1-piperazinyl]-ethyl}-8-azaspiro[4.5]decane-7,9-dione]	–
3.11	O=C1CC2(CCCC2)C(=O)N1CCN1CCN(c2cc(Cl)ccc2Cl)CC1 [Example 14, 2-{2-[4-(2,5-Dichlorophenyl)-1-piperazinyl]-ethyl}-2-azaspiro[4.4]nonane-1,3-dione]	–
–	O=C1CC2(CCCC2)CC(=O)N1CCN1CCN(c2cc(Cl)ccc2Cl)CC1 [Example 1, 8-{2-[4-(2,5-Dichlorophenyl)-1-piperazinyl]-ethyl}-8-azaspiro[4.5]decane-7,9-dione]	Kb (Rat aorta α1D): 1.02 nM
16.4	CN(CCN1C(=O)CC2(CCCC2)CC1=O)CCN(C)c1cc(Cl)ccc1Cl [Example 18, N-(2,5-Dichlorophenyl)-N'-{2-(7,9-dioxo-8-azaspiro[4.5]decane-8-yl)-ethyl}-N,N'-dimethyl-1,2-diaminoethane]	–
0.41	CC(CN1CCN(c2cc(Cl)ccc2Cl)CC1)N1C(=O)CC2(CCCC2)CC1=O (stereo not drawn) [Example 16, 8-{2-[4-(2,5-Dichlorophenyl)-1-piperazinyl]-1-methylethyl}-8-azaspiro[4.5]decane-7,9-dione]	–
0.2	N#Cc1ccc(Cl)cc1N1CCN(CCN2C(=O)CC3(CCCC3)CC2=O)CC1 [Example 8, 8-{2-[4-(5-Chloro-2-cyanophenyl)-1-piperazinyl]-ethyl}-8-azaspiro[4.5]decane-7,9-dione]	–
–	O=C1CCCC(=O)N1CCN1CCN(c2cc(Cl)ccc2Cl)CC1 [Example 2, 1-{2-[4-(2,5-Dichlorophenyl)-1-piperazinyl]-ethyl}-piperidinyl-2,6-dione]	Ki [1]: 3.25 nM
2.65	O=C1CC2(CCC2)CC(=O)N1CCN1CCN(c2cc(Cl)ccc2Cl)CC1 [Example 15, 7-{2-[4-(2,5-Dichlorophenyl)-1-piperazinyl]-ethyl}-7-azaspiro[3.5]nonane-6,8-dione]	–
0.18	O=C1CC2(CCCC2)CC(=O)N1CCN1CCN(c2cc(F)ccc2Cl)CC1 [Example 9, 8-{2-[4-(2-Chloro-5-fluorophenyl)-1-piperazinyl]-ethyl}-8-azaspiro[4.5]decane-7,9-dione]	–
–	O=C1CC2(C=CN1CCN1CCN(c3cc(Cl)ccc3Cl)CC1)CCCC2 [Example 20, 8-{2-[4-(2,5-Dichlorophenyl)-1-piperazinyl]-ethyl}-8-azaspiro[4.5]dec-9,10-en-7-one]	Ki [1]: 1.43 nM
0.31	O=C1CC2(CCCC2)CCN1CCN1CCN(c2cc(F)c(F)cc2F)CC1 [Example 24, 8-{2-[4-(2,4,5-Trifluorophenyl)-1-piperazinyl]-ethyl}-8-azaspiro[4.5]decane-7-one]	–
7.56	O=C1CC2(CCCC2)CC(=O)N1CCN1CCN(c2cc(C(F)(F)F)ccc2F)CC1 [Example 6, 8-{2-[4-(2-Fluoro-5-trifluoromethylphenyl)-1-piperazinyl]-ethyl}-8-azaspiro[4.5]decane-7,9-dione]	–
15.3	O=C1CC2(CCCC2)CC(=O)N1CCN1CCN(c2cc(I)ccc2Cl)CC1 [Example 10, 8-{2-[4-(2-Chloro-5-iodophenyl)-1-piperazinyl]-ethyl}-8-azaspiro[4.5]decane-7,9-dione]	–
2.21	O=C1CC2(CCCCC2)CC(=O)N1CCN1CCN(c2cc(Cl)ccc2Cl)CC1 [Example 11, 3-{2-[4-(2,5-Dichlorophenyl)-1-piperazinyl]-ethyl}-3-azaspiro[5.5]undecane-2,4-dione]	–
2.38	Cc1ccc(F)c(N2CCN(CCN3C(=O)CC4(CCCC4)CC3=O)CC2)c1 [Example 4, 8-{2-[4-(2-Fluoro-5-methylphenyl)-1-piperazinyl]-ethyl}-8-azaspiro[4.5]decane-7,9-dione]	–
1.5	O=C1CC2(CCCC2)CC(=O)N1CCN1CCC(c2cc(Cl)ccc2Cl)CC1 [Example 17, 8-{2-[4-(2,5-Dichlorophenyl)-1-piperidinyl]-ethyl}-8-azaspiro[4.5]decane-7,9-dione]	–

Structure (SMILES)	Ki [1, 2] [nM]	other results
CCC1(C)CC(=O)N(CCN2CCN(c3cc(Cl)ccc3Cl)CC2)C(=O)C1 [Example 13, 1-{2-[4-(2,5-Dichlorophenyl)-1-piperazinyl]-ethyl}-4-ethyl-4-methylpiperidinyl-2,6-dione]	1.23	–
